Test results published in US7138361B2, “Herbicidal heterocycles” (E. I. du Pont de Nemours and Company, priority 2000, dated 2006).

Tests used:
Assay type in all cases: in vivo
Nightshade = assay: Test C preemergence; details: Rate 500 g/ha, visual evaluation after 12 to 14 days
Sunflower = assay: Test C preemergence; details: Rate 250 g/ha, scale 0 to 100, 0 no effect, 100 complete control
[1] = system: wheat (Triticum aestivum); assay: Test B postemergence; details: 13 to 15 days
Procedure, shortened: (§1)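 Seeds were planted and sprayed preemergence with test chemical in a non-phytotoxic solvent mixture containing surfactant; postemergence plants (2 to 18 cm, 1- to 4-leaf stage) received the same formulation. Greenhouse hold 13 to 15 days, then visual rating versus untreated controls on a 0–100 scale (0 no effect, 100 complete control).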

[2] = system: crabgrass (Digitaria sanguinalis); assay: Test B postemergence; details: 13 to 15 days
Procedure, shortened: as §1

[3] = system: lambsquarters (Chenopodium album); assay: Test B postemergence; details: 13 to 15 days
Procedure, shortened: as §1

[4] = system: morning glory (Ipomoea hederacea); assay: Test B postemergence; details: 13 to 15 days
Procedure, shortened: as §1

[5] = system: barnyardgrass (Echinochloa crus-galli); assay: Test B postemergence; details: 13 to 15 days
Procedure, shortened: as §1

wild oat (Avena fatua) = assay: Test B postemergence; details: 13 to 15 days
Procedure, shortened: as §1

[6] = system: blackgrass (Alopecurus myosuroides); assay: Test B postemergence; details: 13 to 15 days
Procedure, shortened: as §1

[7] = system: Surinam grass (Brachiaria decumbens); assay: Test B postemergence; details: 13 to 15 days
Procedure, shortened: as §1

[8] = system: velvetleaf (Abutilon theophrasti); assay: Test B postemergence; details: 13 to 15 days
Procedure, shortened: as §1

[9] = system: giant foxtail (Setaria faberii); assay: Test B postemergence; details: 13 to 15 days
Procedure, shortened: as §1

[10] = system: cocklebur (Xanthium strumarium); assay: Test B postemergence; details: 13 to 15 days
Procedure, shortened: as §1

[11] = system: pigweed (Amaranthus retroflexus); assay: Test B postemergence; details: 13 to 15 days
Procedure, shortened: as §1

corn (Zea mays) [12] = assay: Test B postemergence; details: 13 to 15 days
Procedure, shortened: as §1

[13] = system: crabgrass (Digitaria sanguinalis); assay: Test B preemergence
Procedure, shortened: as §1

rice (Oryza saliva) = assay: Test B preemergence
Procedure, shortened: as §1

[14] = system: lambsquarters (Chenopodium album); assay: Test B preemergence
Procedure, shortened: as §1

[15] = system: morning glory (Ipomoea hederacea); assay: Test B preemergence
Procedure, shortened: as §1

[16] = system: barnyardgrass (Echinochloa crus-galli); assay: Test B preemergence
Procedure, shortened: as §1

[17] = system: Surinam grass (Brachiaria decumbens); assay: Test B preemergence
Procedure, shortened: as §1

[18] = system: velvetleaf (Abutilon theophrasti); assay: Test B preemergence
Procedure, shortened: as §1

[19] = system: giant foxtail (Setaria faberii); assay: Test B preemergence
Procedure, shortened: as §1

[20] = system: cocklebur (Xanthium strumarium); assay: Test B preemergence
Procedure, shortened: as §1

[21] = system: pigweed (Amaranthus retroflexus); assay: Test B preemergence
Procedure, shortened: as §1

corn (Zea mays) [22] = assay: Test B preemergence
Procedure, shortened: as §1

[23] = Rate 125 g/ha, scale 0 (no effect) to 100 (complete control)
[24] = Rate 500 g/ha, scale 0 to 100, 0 is no effect, 100 is complete control
[25] = Preemergence, Rate 500 g/ha, scale 0 to 100, 0 no effect, 100 complete control
[26] = preemergence, Rate 125 g/ha, scale of 0 to 100 where 0 is no effect and 100 is complete control, 13 to 15 days

## COc1cc(N2CCC(n3ccc(C(C)C)n3)C2=O)ccc1C (stereo not shown) [Compound 85]
Nightshade
  Plant response rating (0 to 100), Nightshade: 100
Sunflower
  Plant response rating, Sunflower: 70
[1]; [23]
  Plant response rating, Wheat: 0
[1]; [24]
  Plant response rating, Wheat: 0
[2]; [23]
  Plant response rating, Crabgrass: 20
[2]; [24]
  Plant response rating, Crabgrass: 50
[3]; [23]
  Plant response rating, Lambsquarters: 30
[3]; [24]
  Plant response rating, Lambsquarters: 90
[4]; [23]
  Plant response rating, Morningglory: 0
[4]; [24]
  Plant response rating, Morningglory: 80
[5]; [23]
  Plant response rating, Barnyardgrass: 0
[5]; [24]
  Plant response rating, Barnyardgrass: 50
Wild oat (Avena fatua); [23]
  Plant response rating, Wild Oat: 0
Wild oat (Avena fatua); [24]
  Plant response rating, Wild Oat: 20
[6]; [23]
  Plant response rating, Blackgrass: 0
[6]; [24]
  Plant response rating, Blackgrass: 20
[7]; [23]
  Plant response rating, Surinam grass: 0
[7]; [24]
  Plant response rating, Surinam grass: 0
[8]; [23]
  Plant response rating, Velvetleaf: 20
[8]; [24]
  Plant response rating, Velvetleaf: 50
[9]; [23]
  Plant response rating, Foxtail, Giant: 0
[9]; [24]
  Plant response rating, Foxtail, Giant: 20
[10]; [23]
  Plant response rating, Cocklebur: 40
[10]; [24]
  Plant response rating, Cocklebur: 100
[11]; [23]
  Plant response rating, Pigweed: 60
[11]; [24]
  Plant response rating, Pigweed: 90
Corn (Zea mays) [12]; [23]
  Plant response rating, Corn: 0
Corn (Zea mays) [12]; [24]
  Plant response rating, Corn: 30
[13]; [25]
  Plant response rating, Crabgrass: 100
[13]; [26]
  Plant response rating, Crabgrass: 100
Rice (Oryza saliva); [25]
  Plant response rating, Rice: 100
Rice (Oryza saliva); [26]
  Plant response rating, Rice: 100
[14]; [25]
  Plant response rating, Lambsquarters: 100
[14]; [26]
  Plant response rating, Lambsquarters: 100
[15]; [25]
  Plant response rating, Morningglory: 100
[15]; [26]
  Plant response rating, Morningglory: 90
[16]; [25]
  Plant response rating, Barnyardgrass: 100
[16]; [26]
  Plant response rating, Barnyardgrass: 100
[17]; [25]
  Plant response rating, Surinam grass: 90
[17]; [26]
  Plant response rating, Surinam grass: 60
[18]; [25]
  Plant response rating, Velvetleaf: 100
[18]; [26]
  Plant response rating, Velvetleaf: 20
[19]; [25]
  Plant response rating, Foxtail, Giant: 100
[19]; [26]
  Plant response rating, Foxtail, Giant: 80
[20]; [25]
  Plant response rating, Cocklebur: 90
[20]; [26]
  Plant response rating, Cocklebur: 40
[21]; [25]
  Plant response rating, Pigweed: 100
[21]; [26]
  Plant response rating, Pigweed: 100
Corn (Zea mays) [22]; [25]
  Plant response rating, Corn: 30
Corn (Zea mays) [22]; [26]
  Plant response rating, Corn: 20

## CSc1cccc(N2CCC(n3ccc(C(C)(C)C)n3)C2=O)c1 (stereo not shown) [Compound 86]
Nightshade
  Plant response rating (0 to 100), Nightshade: 10
Sunflower
  Plant response rating, Sunflower: 20
[1]; [23]
  Plant response rating, Wheat: 0
[1]; [24]
  Plant response rating, Wheat: 0
[2]; [23]
  Plant response rating, Crabgrass: 0
[2]; [24]
  Plant response rating, Crabgrass: 0
[3]; [23]
  Plant response rating, Lambsquarters: 0
[3]; [24]
  Plant response rating, Lambsquarters: 50
[4]; [23]
  Plant response rating, Morningglory: 0
[4]; [24]
  Plant response rating, Morningglory: 0
[5]; [23]
  Plant response rating, Barnyardgrass: 0
[5]; [24]
  Plant response rating, Barnyardgrass: 0
Wild oat (Avena fatua); [23]
  Plant response rating, Wild Oat: 0
Wild oat (Avena fatua); [24]
  Plant response rating, Wild Oat: 0
[6]; [23]
  Plant response rating, Blackgrass: 0
[6]; [24]
  Plant response rating, Blackgrass: 0
[7]; [23]
  Plant response rating, Surinam grass: 0
[7]; [24]
  Plant response rating, Surinam grass: 0
[8]; [23]
  Plant response rating, Velvetleaf: 0
[8]; [24]
  Plant response rating, Velvetleaf: 0
[9]; [23]
  Plant response rating, Foxtail, Giant: 0
[9]; [24]
  Plant response rating, Foxtail, Giant: 0
[10]; [23]
  Plant response rating, Cocklebur: 0
[10]; [24]
  Plant response rating, Cocklebur: 0
[11]; [23]
  Plant response rating, Pigweed: 0
[11]; [24]
  Plant response rating, Pigweed: 0
Corn (Zea mays) [12]; [23]
  Plant response rating, Corn: 0
Corn (Zea mays) [12]; [24]
  Plant response rating, Corn: 0
[13]; [25]
  Plant response rating, Crabgrass: 100
[13]; [26]
  Plant response rating, Crabgrass: 0
Rice (Oryza saliva); [25]
  Plant response rating, Rice: 0
Rice (Oryza saliva); [26]
  Plant response rating, Rice: 0
[14]; [25]
  Plant response rating, Lambsquarters: 100
[14]; [26]
  Plant response rating, Lambsquarters: 100
[15]; [25]
  Plant response rating, Morningglory: 0
[15]; [26]
  Plant response rating, Morningglory: 0
[16]; [25]
  Plant response rating, Barnyardgrass: 100
[16]; [26]
  Plant response rating, Barnyardgrass: 0
[17]; [25]
  Plant response rating, Surinam grass: 60
[17]; [26]
  Plant response rating, Surinam grass: 0
[18]; [25]
  Plant response rating, Velvetleaf: 0
[18]; [26]
  Plant response rating, Velvetleaf: 0
[19]; [25]
  Plant response rating, Foxtail, Giant: 100
[19]; [26]
  Plant response rating, Foxtail, Giant: 80
[20]; [25]
  Plant response rating, Cocklebur: 0
[20]; [26]
  Plant response rating, Cocklebur: 0
[21]; [25]
  Plant response rating, Pigweed: 100
[21]; [26]
  Plant response rating, Pigweed: 100
Corn (Zea mays) [22]; [25]
  Plant response rating, Corn: 20
Corn (Zea mays) [22]; [26]
  Plant response rating, Corn: 0
